Test results reported in the supplement of paper PMC5770543.
± gives the standard deviation.

Legend:
[1] = system: Plasmodium falciparum KH004-003 (artemisinin resistant); assay: R50 (50% reduction of ring formation, egress/invasion); higher = less potent
Protocol: (§1)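 P. falciparum asexual blood stages. EC50: sorbitol-synchronized 3D7 rings were treated with 2-fold dilutions from 10 µM for 60 h, with parasitemia read by SYBR Green I fluorescence; EC50 listed as 10 means not determined and is left out. Stage transition screen: ~40-42 hpi schizonts were treated at 1, 3 and 10 µM; new rings were counted by Hoechst flow cytometry and % inhibition is relative to DMSO controls (mean of 3 experiments). R50: concentration giving 50% reduction of new ring formation versus DMSO in 3D7, K1 and KH004-003, from flow cytometry after 12-20 h treatment of schizonts.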

[2] = system: Plasmodium falciparum K1 (chloroquine resistant); assay: as above
Protocol: as §1

[3] = system: Plasmodium falciparum 3D7; assay: as above
Protocol: as §1

[4] = system: Toxoplasma gondii RH tachyzoites; assay: % growth inhibition vs DMSO (48 h luciferase); higher = more inhibition; conditions: 10 µM
[5] = system: Plasmodium falciparum 3D7; assay: EC50 growth inhibition (60 h, SYBR Green); conditions: stage: ring-stage start
[6] = system: Plasmodium falciparum 3D7; assay: % inhibition of schizont-to-ring transition vs DMSO; higher = more inhibition
Procedure, shortened: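 Tightly synchronised P. falciparum schizonts (about 40–42 hours post-invasion, 1% parasitemia, 2.5% hematocrit, AlbuMAX-supplemented RPMI) were exposed to compound at 1, 3 or 10 µM, with vehicle and positive controls. Cells were glutaraldehyde-fixed, Triton-permeabilised, stained with Hoechst 33342 and counted by flow cytometry (at least 100,000 events). Schizont-to-ring transition inhibition is new ring formation relative to vehicle controls, averaged over three experiments.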

[7] = biological target: Toxoplasma gondii RH tachyzoites; assay: EC50 growth inhibition (48 h luciferase)
[8] = system: Toxoplasma gondii RH tachyzoites; assay: plaque count per well; higher = less inhibition; extreme values may be limits of the assay; conditions: 10 µM; 8-10 days
Procedure, shortened: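 The per-well plaque count reflects delayed-death inhibition of parasite growth. Each well of a six-well plate with a confluent HFF monolayer, preseeded with compound at 10 µM, was given fifty T. gondii RH tachyzoites. Plates sat undisturbed for 8 to 10 days before methanol fixation and crystal violet staining. Plaques were then imaged and counted per well with ImageJ, alongside untreated wells and wells treated with 1% DMSO.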

[9] = system: Toxoplasma gondii RH tachyzoites; assay: median egress time after A23187 ionophore; higher = stronger egress inhibition; conditions: 10 µM; pretreatment time: 24 h
Protocol: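 T. gondii RH tachyzoites expressing firefly luciferase were grown in HFF monolayers for 48 h with compound. % growth inhibition at 10 µM and EC50 (2-fold dilutions from 10 µM) were read by luminescence relative to 1% DMSO; EC50 listed as 10 (not determined, <80% inhibition) is left out. Plaque assays: 50 tachyzoites per well with 10 µM compound for 8-10 days, giving plaque count and area by crystal violet/ImageJ. Egress: median time to egress after 1 µM A23187 ionophore following 24 h of 10 µM compound (DMSO ~1.8 min; >10 = no egress within 10 min).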
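For % growth inhibition vs DMSO (48 h luciferase) in this document: tested in triplicate wells of 96-well plates on confluent HFF monolayers, with 1% DMSO wells as negative control in four replicates.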

Structure (SMILES) | R50 [1] [µM] | R50 [2] [µM] | R50 [3] [µM] | % growth inhibition [4] [%] | EC50 growth inhibition [5] [µM] | % inhibition of schizont-to-ring transition ([6]; 1 µM) [%] | % inhibition of schizont-to-ring transition ([6]; 3 µM) [%] | % inhibition of schizont-to-ring transition ([6]; 10 µM) [%] | EC50 growth inhibition [7] [µM] | plaque count per well [8] | median egress time [9] [min]
Cc1cc(Nc2ccc(OCc3ccccc3)cc2)nc2cc(O)ccc12 | 0.702 | 0.291 | 0.97 | 100.3 ± 0.21 | 0.195 | 64.2 | 71.9 | 69.8 | 2.85 | – | –
CC(=O)Nc1nnc(SCc2c(C)cc(C(C)(C)C)cc2C)s1 | – | – | – | < 0 | – | 42.7 | 46.5 | 55.4 | – | 21 | 2.4
CNCCCNc1ccnc2cc(Cl)ccc12 | 3.81 | 4.11 | 0.345 | 21.4 ± 19 | 0.0258 | 61.4 | 66.5 | 71.6 | – | – | 2.4
CCOc1ccccc1CNC(=O)C1c2ccccc2C(=O)N(CC(C)C)C1c1cccs1 (stereo not given) | 2.32 | 2.11 | 2.06 | 70.7 ± 11 | 0.649 | 38.3 | 65.3 | 74.8 | – | – | –
COc1cccc(-c2nn(C)c3sc(C(=O)NCCN4CCN(c5ccccc5F)CC4)cc23)c1 | – | – | – | 1.85 ± 3.2 | 4.2 | 12.9 | 36.3 | 60.8 | – | 31 | 2.93
OC(CNC1CCCCC1)Cn1c2ccc(I)cc2c2cc(I)ccc21 (stereo not given) | – | – | – | < 0 | 0.591 | 39.7 | 69 | 73.8 | – | 3 | 1.33
CCOc1cc2c(cc1OCC)C(c1cc(OC)c(O)cc1Cl)NCC2 (stereo not given) | 1.32 | 0.342 | 2.71 | 37.4 ± 13 | 0.711 | 11.2 | 60 | 76.1 | – | – | 2.27
CC(NCc1ccccc1)c1cc(Cl)ccc1O (stereo not given) | – | – | – | 14.9 ± 6 | 0.801 | 29.2 | 44.4 | 66.6 | – | 29 | 2.27
Oc1ccc(Br)cc1CN1CCN(Cc2cccc(F)c2)CC1 | – | – | – | 6.13 ± 7.3 | 0.787 | 19 | 40.9 | 60.6 | – | 21 | 2.27
COc1ccc(C(=O)C(CCC(CNC(C)(C)C)C(=O)c2ccc(OC)cc2)CNC(C)(C)C)cc1 (stereo not given) | – | – | – | 89.2 ± 2.7 | 1.45 | < 0 | 16.3 | 66.1 | 1.51 | 0 | –
Cc1sc2ncnc(Sc3nc4ccccc4[nH]3)c2c1C | 0.464 | 1.69 | 2.43 | 95.05 ± 0.6 | 0.86 | 47.8 | 59.6 | 77.8 | 2.95 | – | –
